Measurements from paper PMC5626787, “Mouse Nudt13 is a Mitochondrial Nudix Hydrolase with NAD(P)H Pyrophosphohydrolase Activity” (The Protein Journal, 2017).

Target: T1, Nudt13 (Mus musculus, UniProt Q8JZU0)
T1 construct: baculovirus, High Five insect cells
T1 sequence (Q8JZU0 1-352): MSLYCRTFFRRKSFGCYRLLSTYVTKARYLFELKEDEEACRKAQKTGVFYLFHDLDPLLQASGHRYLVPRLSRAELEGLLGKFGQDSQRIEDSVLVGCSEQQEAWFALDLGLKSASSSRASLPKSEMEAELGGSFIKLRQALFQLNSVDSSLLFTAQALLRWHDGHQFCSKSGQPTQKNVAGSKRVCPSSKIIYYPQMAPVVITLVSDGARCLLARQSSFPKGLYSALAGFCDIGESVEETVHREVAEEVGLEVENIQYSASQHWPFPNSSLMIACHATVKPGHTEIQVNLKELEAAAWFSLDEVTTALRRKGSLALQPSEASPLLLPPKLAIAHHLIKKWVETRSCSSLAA
Assay: HPLC product analysis, non-linear regression, Michaelis-Menten
Format: biochemical
Settings: 2 mM Mn2+, 50 mM Tris-HCl pH 8.0, 1 mM dithiothreitol, 37 °C; hydrolysis to NMNH and AMP
Experimental: HPLC product analysis, non-linear regression, Michaelis-Menten on Nudt13 | K m and k cat values were determined for NADH under optimal assay conditions

Km: 340 µM
SMILES: NC(=O)C1=CN([C@@H]2O[C@H](COP(=O)(O)OP(=O)(O)OC[C@H]3O[C@@H](n4cnc5c(N)ncnc54)[C@H](O)[C@@H]3O)[C@@H](O)[C@H]2O)C=CC1 [NADH]
